What was measured:
HeLa = test: Inhibition of TNF-alpha-induced apoptosis in HeLa cells assessed as cell protection; settings: Homo sapiens
Caspase-7 = target: T1, Caspase-7 (Homo sapiens, UniProt P55210); test: Inhibition of human caspase 7
T1 sequence (P55210 whole entry): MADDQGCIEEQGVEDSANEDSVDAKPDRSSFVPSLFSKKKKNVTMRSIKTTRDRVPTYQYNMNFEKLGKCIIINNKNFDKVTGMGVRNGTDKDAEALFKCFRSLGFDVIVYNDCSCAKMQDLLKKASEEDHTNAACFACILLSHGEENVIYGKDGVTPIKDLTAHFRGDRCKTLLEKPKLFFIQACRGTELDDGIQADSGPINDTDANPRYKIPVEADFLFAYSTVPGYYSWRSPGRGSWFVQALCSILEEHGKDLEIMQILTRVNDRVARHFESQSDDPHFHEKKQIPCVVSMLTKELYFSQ

Caspase-1 = target: T2, Caspase-1 (Homo sapiens, UniProt P29466); test: Inhibition of human caspase 1
T2 sequence (P29466 whole entry): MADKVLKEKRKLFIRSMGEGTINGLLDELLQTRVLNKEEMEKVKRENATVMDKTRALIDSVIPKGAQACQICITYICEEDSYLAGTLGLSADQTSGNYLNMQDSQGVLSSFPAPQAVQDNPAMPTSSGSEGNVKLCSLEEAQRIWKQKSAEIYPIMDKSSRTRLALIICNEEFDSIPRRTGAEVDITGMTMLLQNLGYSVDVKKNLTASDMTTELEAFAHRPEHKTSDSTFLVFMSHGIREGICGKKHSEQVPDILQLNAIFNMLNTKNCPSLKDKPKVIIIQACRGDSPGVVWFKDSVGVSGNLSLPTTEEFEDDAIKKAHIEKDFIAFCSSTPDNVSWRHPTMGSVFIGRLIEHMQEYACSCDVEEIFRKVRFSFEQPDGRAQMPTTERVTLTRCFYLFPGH

Caspase-6 = target: T3, Caspase-6 (Homo sapiens, UniProt P55212); test: Inhibition of human caspase 6
T3 sequence (P55212 whole entry): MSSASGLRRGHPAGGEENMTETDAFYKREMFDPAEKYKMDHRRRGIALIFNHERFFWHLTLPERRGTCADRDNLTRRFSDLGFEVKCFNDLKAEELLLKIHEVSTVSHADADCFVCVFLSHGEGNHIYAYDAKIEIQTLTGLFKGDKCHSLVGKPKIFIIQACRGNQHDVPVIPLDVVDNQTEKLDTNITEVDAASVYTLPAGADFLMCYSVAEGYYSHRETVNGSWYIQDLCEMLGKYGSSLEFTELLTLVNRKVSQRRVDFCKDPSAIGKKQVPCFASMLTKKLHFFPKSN

Caspase-3 = target: T4, Caspase-3 (Homo sapiens, UniProt P42574); test: Inhibition of human recombinant caspase 3 by fluorometric assay
T4 sequence (P42574 whole entry): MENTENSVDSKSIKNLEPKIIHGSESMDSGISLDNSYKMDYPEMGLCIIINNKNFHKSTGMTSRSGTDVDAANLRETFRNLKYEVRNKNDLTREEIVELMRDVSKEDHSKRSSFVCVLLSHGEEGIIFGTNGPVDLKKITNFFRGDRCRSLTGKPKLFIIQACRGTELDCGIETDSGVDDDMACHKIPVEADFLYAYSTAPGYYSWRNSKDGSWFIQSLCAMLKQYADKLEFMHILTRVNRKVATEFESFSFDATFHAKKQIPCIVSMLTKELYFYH

Caspase-8 = Caspase-8 (Homo sapiens, UniProt Q14790); test: Inhibition of human caspase 8
Chain of Caspase-8 (Q14790 217-374 limits assumed): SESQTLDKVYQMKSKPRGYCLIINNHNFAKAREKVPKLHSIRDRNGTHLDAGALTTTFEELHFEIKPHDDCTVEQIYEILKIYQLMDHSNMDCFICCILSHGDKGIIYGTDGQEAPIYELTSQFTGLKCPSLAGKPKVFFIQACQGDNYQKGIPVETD
Chain of Caspase-8 (Q14790 385-479 limits assumed): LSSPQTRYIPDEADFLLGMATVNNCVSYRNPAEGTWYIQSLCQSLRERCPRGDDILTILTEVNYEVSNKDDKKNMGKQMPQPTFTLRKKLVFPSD

Caspase-9 = target: T5, Caspase-9 (Homo sapiens, UniProt P55211); test: Inhibition of human caspase 9
T5 sequence (P55211 whole entry): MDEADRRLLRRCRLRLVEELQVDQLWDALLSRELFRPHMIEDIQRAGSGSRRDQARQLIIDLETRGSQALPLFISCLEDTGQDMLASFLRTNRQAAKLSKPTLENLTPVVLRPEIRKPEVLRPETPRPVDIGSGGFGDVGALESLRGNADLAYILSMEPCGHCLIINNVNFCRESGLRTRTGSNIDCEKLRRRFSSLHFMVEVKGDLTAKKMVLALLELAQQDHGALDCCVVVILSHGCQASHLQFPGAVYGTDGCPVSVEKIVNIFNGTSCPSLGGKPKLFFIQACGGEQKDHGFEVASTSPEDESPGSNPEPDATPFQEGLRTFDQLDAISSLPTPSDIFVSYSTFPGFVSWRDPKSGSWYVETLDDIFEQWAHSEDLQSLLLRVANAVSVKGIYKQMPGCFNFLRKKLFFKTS

`O=C(O)CN(C(=O)CF)C(=O)[C@H]1CCN1C(=O)OCc1ccccc1` was tested, and the IC50 (HeLa) was 1700 nM.
Work on `O=C(O)CC(NC(=O)c1ccccc1NC(=O)OCc1ccccc1)C(=O)CF` (stereo not given) yielded an IC50 (HeLa) of 4000 nM.
Work on `O=C(O)CN(C(=O)CF)C(=O)[C@H]1CCCN1C(=O)OCc1ccccc1` yielded an IC50 (HeLa) of over 2000 nM.
Work on `O=C(O)CC(NC(=O)c1sccc1NC(=O)OCc1ccccc1)C(=O)CF` (stereo not given) yielded an IC50 (HeLa) of over 2000 nM.
`CC(C)[C@H](NC(=O)OCc1ccccc1)C(=O)Nc1ccccc1C(=O)NC(CC(=O)O)C(=O)CF` (stereo not given in full) was tested, and the IC50 (Caspase-7) was 11 nM, the IC50 (Caspase-1) was 12 nM and the IC50 (Caspase-6) was 61 nM. It also gave an IC50 (Caspase-3) of 33 nM, an IC50 (Caspase-8) of 6 nM and an IC50 (Caspase-9) of 6 nM.

Source: ChEMBL document CHEMBL1137536, “Dipeptidyl aspartyl fluoromethylketones as potent caspase inhibitors: peptidomimetic replacement of the P(2) amino acid by 2-aminoaryl acids and other non-natural amino acids” (Bioorg Med Chem Lett, 2007)
